# According to patent US20080171037A1, “Apo-3 ligand polypeptide” (Genentech, Inc., priority 1997, published 2008):
# Where a SMILES comes first, the peptide text is derived from it. The star is where a group is joined. Cbz = O=C(OCc1ccccc1)*; CH2F = FC*
# Columns and labels:
# HeLa cells = assay: Apoptosis in HeLa cells transfected with full length Apo-3 Ligand (FACS, annexin V binding); format: cell-based, human; conditions: HeLa cells, inhibitor 200 μM, FIG. 6
# Experimental: A pRK5 plasmid (see EP 307,247) encoding Apo-3 Ligand polypeptide (amino acids 1 to 249 of FIG. 1), or empty pRK5 plasmid, was transiently transfected along with a pRK5 plasmid encoding human CD4 as a marker for transfection into human HeLa cells by electroporation, and the cells were plated in tissue culture dishes. Four hours later, the caspase inhibitor z-VAD-fmk (Research Biochemicals) (200 μM) was added to some of the dishes. Twenty hours later, apoptosis was determined by FACS analysis of cells positive for the CD4 marker by measuring binding of fluorescein isothiocyanate (FITC)-conjugated annexin V (Brand Applications) (see WO 97/25428).
# [1] = test system: Jun N-terminal kinase (JNK/SAPK); assay: JNK/SAPK activity in 293 cells transfected with full length Apo-3 Ligand; format: cell-based, human; conditions: 293 cells, inhibitor 200 μM, FIG. 7
# Experimental: The pRK5 plasmid encoding Apo-3 Ligand polypeptide or empty pRK5 plasmid (see Example 6 above) was transiently transfected into human 293 cells (ATCC CCL 1573) by calcium phosphate precipitation. Four hours later, one set of cells was treated with z-VAD-fmk (Research Biochemicals) (200 μM). Twenty hours later, the cells were harvested and analyzed for activity of Jun N-terminal kinase (JNK; also called stress activated protein kinase or SAPK) using a commercially available JNK/SAPK assay kit (New England Biolabs), and according to the manufacturer's instructions.
# [2] = test system: HeLa S3 cervical carcinoma cells; assay: Apoptosis in HeLa S3 cells (DNA fragmentation analysis); format: cell-based, human; conditions: HeLa S3 cells, inhibitor 100 nM, FIG. 9C
# Experimental: HeLa S3 cervical carcinoma cells (ATCC CCL 2.2) were similarly pre-treated with CHX and then incubated with soluble Apo-3 Ligand (prepared as described in Example 3 above) alone or together with zVAD-fmk or DEVD-fmk (Research Biochemicals) (100 nM). The treated cells were then subjected to DNA fragmentation analysis.
# Apo-3 Ligand = biological target: T1, Apo-3 Ligand (Homo sapiens, UniProt O43508); assay: Apoptosis induction by Apo-3 Ligand after preincubation with Flag tagged Apo-3 and immunodepletion; format: cell-based; conditions: preincubation of ligand and immunodepletion of complexes with anti-Flag beads, FIG. 8B
# T1 construct: made in house; host or cells: E. coli
# T1 sequence (O43508 47-249): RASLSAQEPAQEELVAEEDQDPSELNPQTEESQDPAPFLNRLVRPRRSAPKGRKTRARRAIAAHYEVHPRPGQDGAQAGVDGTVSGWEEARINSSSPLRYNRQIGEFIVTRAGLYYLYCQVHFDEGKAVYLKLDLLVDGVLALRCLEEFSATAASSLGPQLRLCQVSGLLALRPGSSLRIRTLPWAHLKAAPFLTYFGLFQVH
# Source text: Thus, there appeared to be a specific complex formation between Apo-3 Ligand and Apo-3.
# [3] = test system: MCF-7 breast carcinoma cells; assay: Apoptosis in MCF-7 breast carcinoma cells (microscopy, Hoechst dye); format: cell-based, human; conditions: MCF-7 cells pre-treated 1 hour, then 14 hours with ligand, FIG. 9B
# Experimental: Human MCF-7 breast carcinoma cells (ATCC HTB 22) were pre-treated for 1 hour with cyclohexamide (CHX) (10 μg/ml) and incubated for 14 hours with soluble Apo-3 Ligand (2 μg/ml; prepared as described in Example 3 above) alone or together with zVAD-fmk (Research Biochemicals) (100 nM). The cells were then stained with Hoechst dye and photographed by phase (FIG. 9A, left) and by fluorescence (FIG. 9A, right) microscopy. In FIG. 9A, arrowheads indicate some of the apoptotic cells (left) and their condensed nuclei (right).
# In a separate experiment, the MCF-7 cells were pre-treated for 1 hour with buffer or CHX, incubated for an additional 14 hours with the indicated concentrations of soluble Apo-3 Ligand (see FIG. 9B), and apoptotic or live cells were score by microscopy.
# DR5 = biological target: T2, DR5 (Homo sapiens, UniProt O14763); assay: Co-immunoprecipitation binding assay with DR5 ECD; conditions: ligand and receptor 1 μg/ml, FIG. 8A
# T2 construct: the ECD of the Apo-2L receptor, DR5; made in house
# Experimental: A Flag-epitope tagged soluble Apo-3 was produced (as described for DR5 in Sheridan et al., Science, 277:818 (1997)) and tested in a co-immunoprecipitation assay to examine its ability to associate with a histidine tagged soluble Apo-3 Ligand (see Example 3 above). […] The respective ligands (1 μg/ml) and receptors (1 μg/ml) were incubated for 1 hour at room temperature. The reaction mixtures were subjected to precipitation with anti-Flag antibody conjugated to sepharose beads (Kodak) (FIG. 8A, left) or nickel-sepharose (Qiagen) (FIG. 8A, right) by overnight incubation at 4° C. according to manufacturer's instructions and resolved by gel electrophoresis. The ligands were visualized by Western blot analysis with nickel-conjugated horseradish peroxidase. In FIG. 8A, molecular weight markers (kDa) are indicated on the left.
# T2 sequence (O14763 56-184 limits assumed): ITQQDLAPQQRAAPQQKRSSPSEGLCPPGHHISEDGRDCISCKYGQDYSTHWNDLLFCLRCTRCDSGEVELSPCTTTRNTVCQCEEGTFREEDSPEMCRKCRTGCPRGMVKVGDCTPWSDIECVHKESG
compound,measurement,setting,value
"COC(=O)C[C@H](NC(=O)[C@H](C)NC(=O)[C@@H](NC(=O)OCc1ccccc1)C(C)C)C(=O)CF [z-VAD-fmk, reference compound] (Cbz-Val-Ala-Asp(OMe)-CH2F)",effect on the increase in apoptosis by Apo-3 Ligand transfection,HeLa cells,blocked
same,effect on JNK activation by Apo-3 Ligand,[1],augmented JNK activation
same,effect on induction of apoptosis by Apo-3 Ligand,[2],blocked induction of apoptosis
"Flag tagged Apo-3: Flag-epitope tagged soluble Apo-3 receptor (also DR3, Wsl-1, TRAMP, LARD)",effect on apoptosis induction by Apo-3 Ligand,Apo-3 Ligand,inhibited apoptosis induction
"C[C@@H]1C[C@@H]([C@H](O)CC2CC(=O)NC(=O)C2)C(=O)[C@@H](C)C1 [cyclohexamide, reference compound]",effect on Apo-3 ligand-induced apoptosis,[3],augmented
DEVD-fmk,effect on induction of apoptosis by Apo-3 Ligand,[2],blocked induction of apoptosis
"Apo-2 Ligand: TNF family cytokine, also referred to as TRAIL, tested for comparison",binding to DR5,DR5,bound to DR5
